Legend:
Format in all cases: biochemical
MMP-1 = target: T1, MMP-1 (Homo sapiens, UniProt P03956); test: MMP-1 inhibition, thiopeptide or fluorescent peptide substrate test procedure; settings: for IC50: in vitro enzyme inhibition
T1 sequence (P03956 100-469): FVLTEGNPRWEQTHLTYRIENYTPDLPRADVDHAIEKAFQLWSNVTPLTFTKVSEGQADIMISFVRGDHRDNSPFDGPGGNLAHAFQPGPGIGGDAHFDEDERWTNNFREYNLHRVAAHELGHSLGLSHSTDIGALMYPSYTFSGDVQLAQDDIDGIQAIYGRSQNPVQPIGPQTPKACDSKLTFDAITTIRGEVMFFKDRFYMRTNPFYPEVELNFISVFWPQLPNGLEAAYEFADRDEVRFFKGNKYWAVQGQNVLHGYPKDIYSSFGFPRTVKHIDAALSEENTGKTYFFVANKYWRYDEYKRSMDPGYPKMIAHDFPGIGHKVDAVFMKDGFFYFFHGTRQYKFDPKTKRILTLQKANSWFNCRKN
Experimental: (§1) Test Procedures for Measuring MMP-1, MMP-9, and MMP-13 Inhibition
(§2) These standard pharmacological test procedures are based on the cleavage of a thiopeptide substrates such as Ac-Pro-Leu-Gly(2-mercapto-4-methyl-pentanoyl)-Leu-Gly-OEt by the matrix metalloproteinases MMP-1, MMP-13 (collagenases) or MMP-9 (gelatinase), which results in the release of a substrate product that reacts calorimetrically with DTNB (5,5′-dithiobis(2-nitro-benzoic acid)). The enzyme activity is measured by the rate of the color increase. The thiopeptide substrate is made up fresh as a 20 mM stock in 100% DMSO and the DTNB is dissolved in 100% DMSO as a 100 mM stock and stored in the dark at room temperature. Both the substrate and DTNB are diluted together to 1 mM with substrate buffer (50 mM HEPES pH 7.5, 5 mM CaCl2) before use. The stock of enzyme is diluted with buffer (50 mM HEPES, pH 7.5, 5 mM CaCl2, 0.02% Brij) to the desired final concentration. The buffer, enzyme, vehicle or inhibitor, and DTNB/substrate are added in this order to a 96 well plate (total reaction volume of 200 μl) and the increase in color is monitored spectrophotometrically for 5 minutes at 405 nm on a plate reader and the increase in color over time is plotted as a linear line.
(§3) Alternatively, a fluorescent peptide substrate is used. In this test procedure, the peptide substrate contains a fluorescent group and a quenching group. Upon cleavage of the substrate by an MMP, the fluorescence that is generated is quantitated on the fluorescence plate reader. The assay is run in HCBC assay buffer (50 mM HEPES, pH 7.0, 5 mM Ca^+2, 0.02% Brij, 0.5% Cysteine), with human recombinant MMP-1, MMP-9, or MMP-13. The substrate is dissolved in methanol and stored frozen in 1 mM aliquots. For the assay, substrate and enzymes are diluted in HCBC buffer to the desired concentrations. Compounds are added to the 96 well plate containing enzyme and the reaction is started by the addition of substrate. The reaction is read (excitation 340 nm, emission 444 nm) for 10 min. and the increase in fluorescence over time is plotted as a linear line.
(§4) For either the thiopeptide or fluorescent peptide test procedures, the slope of the line is calculated and represents the reaction rate. The linearity of the reaction rate is confirmed (r^2>0.85). The mean (x±sem) of the control rate is calculated and compared for statistical significance (p<0.05) with drug-treated rates using Dunnett's multiple comparison test. Dose-response relationships can be generated using multiple doses of drug and IC50 values with 95% Cl are estimated using linear regression.

MMP-13 = MMP-13 (Homo sapiens, UniProt P45452); test: MMP-13 inhibition, thiopeptide or fluorescent peptide substrate test procedure; settings: in vitro enzyme inhibition
Experimental: as §1, §2, §3, §4

MMP-9 = MMP-9 (Homo sapiens, UniProt P14780); test: MMP-9 inhibition, thiopeptide or fluorescent peptide substrate test procedure; settings: in vitro enzyme inhibition
Experimental: as §1, §2, §3, §4

[1] = target: TNF-α converting enzyme (TACE) (Homo sapiens, UniProt P78536); test: TACE inhibition, fluorescent peptidyl substrate test procedure; settings: in vitro enzyme inhibition
Experimental: Test Procedure for Measuring TACE Inhibition
Using 96-well black microtiter plates, each well receives a solution composed of 10 μL TACE (final concentration 1 μg/mL), 70 μL Tris buffer, pH 7.4 containing 10% glycerol (final concentration 10 mM), and 10 μL of test compound solution in DMSO (final concentration 1 μM, DMSO concentration <1%) and incubated for 10 minutes at room temperature. The reaction is initiated by addition of a fluorescent peptidyl substrate (final concentration 100 μM) to each well and then shaking on a shaker for 5 sec.
The reaction is read (excitation 340 nm, emission 420 nm) for 10 min. and the increase in fluorescence over time is plotted as a linear line. The slope of the line is calculated and represents the reaction rate.
The mean (x±sem) of the control rate is calculated and compared for statistical significance (p<0.05) with drug-treated rates using Dunnett's multiple comparison test.

Sequence of TNF-α converting enzyme (TACE) (P78536 215-824, species assumed): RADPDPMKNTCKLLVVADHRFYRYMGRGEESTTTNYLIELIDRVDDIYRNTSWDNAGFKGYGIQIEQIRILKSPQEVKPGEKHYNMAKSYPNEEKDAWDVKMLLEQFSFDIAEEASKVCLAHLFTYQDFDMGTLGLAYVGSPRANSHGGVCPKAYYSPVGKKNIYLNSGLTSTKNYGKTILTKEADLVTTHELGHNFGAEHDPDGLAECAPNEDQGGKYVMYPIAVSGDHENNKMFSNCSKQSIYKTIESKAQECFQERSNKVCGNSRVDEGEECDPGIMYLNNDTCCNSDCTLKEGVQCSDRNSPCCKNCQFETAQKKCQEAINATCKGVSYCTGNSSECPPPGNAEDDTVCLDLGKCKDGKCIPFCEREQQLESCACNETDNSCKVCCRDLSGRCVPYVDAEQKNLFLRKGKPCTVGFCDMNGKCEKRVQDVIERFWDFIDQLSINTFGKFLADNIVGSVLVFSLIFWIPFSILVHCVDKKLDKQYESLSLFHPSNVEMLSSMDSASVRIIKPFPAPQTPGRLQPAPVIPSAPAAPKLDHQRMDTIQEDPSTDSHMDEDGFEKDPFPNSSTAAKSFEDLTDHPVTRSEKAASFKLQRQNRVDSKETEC
Sequence of MMP-9 (P14780 94-707): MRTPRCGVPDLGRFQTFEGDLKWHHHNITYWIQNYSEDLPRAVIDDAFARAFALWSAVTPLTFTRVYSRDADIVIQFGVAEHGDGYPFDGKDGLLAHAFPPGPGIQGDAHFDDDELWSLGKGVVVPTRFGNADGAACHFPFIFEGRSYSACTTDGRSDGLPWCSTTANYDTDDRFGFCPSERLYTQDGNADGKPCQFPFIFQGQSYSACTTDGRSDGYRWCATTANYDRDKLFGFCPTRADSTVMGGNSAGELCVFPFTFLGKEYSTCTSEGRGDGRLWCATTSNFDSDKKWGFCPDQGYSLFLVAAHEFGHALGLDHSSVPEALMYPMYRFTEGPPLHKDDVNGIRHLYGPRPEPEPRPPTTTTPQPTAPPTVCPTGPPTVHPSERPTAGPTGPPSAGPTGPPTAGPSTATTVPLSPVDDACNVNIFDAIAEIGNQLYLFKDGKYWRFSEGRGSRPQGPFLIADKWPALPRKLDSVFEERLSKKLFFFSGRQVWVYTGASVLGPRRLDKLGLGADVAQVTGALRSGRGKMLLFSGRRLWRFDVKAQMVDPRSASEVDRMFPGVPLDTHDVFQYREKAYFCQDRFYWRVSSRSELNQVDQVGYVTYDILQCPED

| Compound | IC50 (MMP-1) [nM] | IC50 (MMP-13) [nM] | IC50 (MMP-9) [nM] | IC50 [1] [nM] | inhibition at 1 µM (MMP-1; 1 μM, read-out: MMP-1 % (inhibition) at single concentration) [%] |
| --- | --- | --- | --- | --- | --- |
| C=C=CCOc1ccc(S(=O)(=O)N2Cc3ccccc3N(C(=O)c3ccccc3)CC2C(=O)NO)cc1 (centres unmarked) [Example 46, 1-Benzoyl-4-(4-buta-2,3-dienyloxy-benzenesulfonyl)-2,3,4,5-tetrahydro-1H-benzo[e][1,4]diazepine-3-carboxylic acid hydroxyamide] | 675 | 4 |  |  |  |
| C=C=CCOc1ccc(S(=O)(=O)NC(C(=O)NO)C(C)C)cc1 (centres unmarked) [Example 13, 2-({[4-(2,3-Butadienyloxy)phenyl]sulfonyl}amino)-N-hydroxy-3-methylbutanamide] | 2670 | 21 | 36 | 51 |  |
| C=C=CCOc1ccc(S(=O)(=O)N2CCSC(C)(C)[C@@H]2C(=O)NO)cc1 [Example 26, (3S)-4-{[4-(2,3-Butadienyloxy)phenyl]sulfonyl}-N-hydroxy-2,2-dimethyl-3-thiomorpholinecarboxamide] | 50 | 4 |  | 116 |  |
| C=C=CCOc1ccc(S(=O)(=O)N2Cc3ccccc3N(C(C)=O)CC2C(=O)NO)cc1 (centres unmarked) [Example 45, 1-Acetyl-4-{[4-(2,3-butadienyloxy)phenyl]sulfonyl}-N-hydroxy-2,3,4,5-tetrahydro-1H-1,4-benzodiazepine-3-carboxamide] | 2350 | 7 | 9 | 71 |  |
| CC=C=CCOc1ccc(S(=O)(=O)N2Cc3ccccc3N(C(=O)c3ccccc3)CC2C(=O)NO)cc1 (centres unmarked) [Example 47, 1-Benzoyl-N-hydroxy-4-{[4-(2,3-pentadienyloxy)phenyl]sulfonyl}-2,3,4,5-tetrahydro-1H-1,4-benzodiazepine-3-carboxamide] |  | 5 |  | 1400 | 32 |

The next lines start with the values.

| IC50 (MMP-1) [nM] | IC50 (MMP-13) [nM] | IC50 (MMP-9) [nM] | IC50 [1] [nM] | inhibition at 1 µM (MMP-1; 1 μM, read-out: MMP-1 % (inhibition) at single concentration) [%] | Compound |
| --- | --- | --- | --- | --- | --- |
| 8810 | 25 | 21 | 62 |  | CC=C=CCOc1ccc(S(=O)(=O)NC(C(=O)NO)C(C)C)cc1 (centres unmarked) [Example 19, N-Hydroxy-3-methyl-2-({[4-(2,3-pentadienyloxy)phenyl]sulfonyl}amino)butanamide] |
| 877 | 6 | 4 | 48 |  | CC=C=CCOc1ccc(S(=O)(=O)N(C)C(C(=O)NO)C(C)C)cc1 (centres unmarked) [Example 22, N-Hydroxy-3-methyl-2-(methyl{[4-(2,3-pentadienyloxy)phenyl]sulfonyl}amino)butanamide] |
|  | 3 |  | 36 |  | C=C=CCOc1ccc(S(=O)(=O)N(C)C(C(=O)NO)C(C)C)cc1 (centres unmarked) [Example 16, 2-[{[4-(2,3-Butadienyloxy)phenyl]sulfonyl}(methyl)amino]-N-hydroxy-3-methylbutanamide] |

From patent US7282496B2, “Allenic aryl sulfonamide hydroxamic acids as matrix metalloproteinase and TACE inhibitors” (Wyeth Holdings Corporation, priority 2001, dated 2007)
